Holding throughout (test): DTP human tumour cell line panel, 48 h
The test system of test [1] is A498.
For test [2], the system named is OVCAR-3.
For test [3], the system named is MCF7.
For test [4], the system named is SK-MEL-2.
Test [5] concerns HCC 2998.
In test [6] the test system is MDA-N.
Test [7] deals with M14.
The subject of test [8] is HOP-92.
For test [9], the system named is OVCAR-8.
Test [10] relates to COLO 205.
The subject of test [11] is PC-3.
In test [12] the test system is SF-295.
The test system of test [13] is SK-MEL-28.
The test system of test [14] is RPMI-8226.
The subject of test [15] is MDA-MB-231.
The test system of test [16] is IGROV-1.
Test [17] deals with SF-268.
In test [18] the test system is Malme-3M.
In test [19] the test system is SR.

SMILES strings stand for the structures.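 Grown in 96-well plates, cells were treated for 48 hours with each compound at five concentrations. Insufficient inhibition: endpoint recorded as highest concentration tested. GI50: concentration for 50% inhibition of growth.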 Calls of active or inactive are those of the source. Cut-off read from the data, not from the text of the source: active = GI50 up to about 1.1 µM and inactive = higher.

These results are taken from ChEMBL document CHEMBL1201862, “PubChem BioAssay data set” (2004).

Usually GI50 stands for the concentration at which growth is held to half of that of the control. As to `Oc1nc(-c2ccc3ccccc3c2)nc2ccccc12`, the GI50 in [1] is 32.9 µM (inactive); in [2] it was 35.4 µM (inactive); in [3] it was 64.4 µM (inactive); in test [4], 91.8 µM (inactive); in test [5], 62.5 µM (inactive); in test [6], 49.2 µM (inactive). For the same compound, the GI50 in test [7] is 33.5 µM (inactive); in test [8], 17.4 µM (inactive); in test [9], 12.7 µM (inactive); in test [10], > 100 µM (inactive); in [11], > 100 µM (inactive); in test [12] it was 23.4 µM (inactive). For the same compound, the GI50 in [13] was > 100 µM (inactive); in [14] it was > 100 µM (inactive); in test [15], 29 µM (inactive); in [16] it was 19.8 µM (inactive); in test [17], 26.3 µM (inactive); in test [18], 33.6 µM (inactive). In addition, the GI50 in test [19] was 20.4 µM (inactive).
As for `O=C(Nc1ccc(S(=O)(=O)Nc2ncccn2)cc1)c1c2ccccc2nc2ccccc12`, the GI50 in test [1], in [2], in test [3], in test [4], in test [5] and in test [6] was > 100 µM (inactive) in each case. Moreover, the GI50 in test [7], in test [8], in test [9], in test [10], in test [11] and in test [12] was > 100 µM (inactive) throughout. For the same compound, the GI50 in test [13], in test [14], in test [15], in test [16], in [17] and in [18] was > 100 µM (inactive) throughout. Also, the GI50 in [19] is 55.7 µM (inactive).
For `CCOC(CN(C)C(=O)Nc1ccc(Cl)c(Cl)c1)OCC`, the GI50 in test [1], in test [2], in test [3], in test [4], in test [5] and in [6] was > 10 µM (inactive) throughout. For the same compound, the GI50 in test [7], in [8], in test [9], in test [10], in test [11] and in test [12] was > 10 µM (inactive) in each case. For the same compound, the GI50 in test [13], in test [14], in test [15], in test [16], in [17] and in test [18] was > 10 µM (inactive) each time. Also, the GI50 in test [19] was > 10 µM (inactive).
Turning to `CN(C)Cc1ccc(C(C)(C)C)cc1-c1cc(C(C)(C)C)ccc1CN(C)C`, the GI50 in test [1] was 28.2 µM (inactive); in test [2], 21.8 µM (inactive); in [3], 37.6 µM (inactive); in test [4] it was 76.9 µM (inactive); in test [5], 16 µM (inactive); in test [6], 48.5 µM (inactive). Also, the GI50 in test [7] is 20.8 µM (inactive); in test [8], > 100 µM (inactive); in test [9] it was > 100 µM (inactive); in test [10], 19.4 µM (inactive); in test [11], 27.7 µM (inactive); in test [12], 33.5 µM (inactive). In addition, the GI50 was 33.3 µM (inactive) in [13]; 26.9 µM (inactive) in test [14]; 70.5 µM (inactive) in test [15]; > 100 µM (inactive) in test [16]; > 100 µM (inactive) in test [17]; 31.3 µM (inactive) in test [18]. Besides, the GI50 in [19] was 39 µM (inactive).
Take `CC(C)OC(=O)OCSc1ccccc1/N=C/c1cccc([N+](=O)[O-])c1`: the GI50 in test [1], in test [2], in test [3], in [4], in test [5] and in [6] was > 10 µM (inactive) in each case. For the same compound, the GI50 in test [7], in [8], in test [9], in [10], in test [11] and in test [12] was > 10 µM (inactive) throughout. The GI50 in test [13], in [14], in test [15], in test [16], in test [17] and in test [18] was > 10 µM (inactive) throughout. Besides, the GI50 in [19] was > 10 µM (inactive).
For `Nc1c2c(nc3cc(F)c(F)cc13)CCC2`, the GI50 is 24.7 µM (inactive) in [1]; > 100 µM (inactive) in [2]; 33.3 µM (inactive) in [3]; > 100 µM (inactive) in test [4]; 14.5 µM (inactive) in test [5]; 49 µM (inactive) in test [6]. Besides, the GI50 in [7] was 61.5 µM (inactive); in test [8], 38.3 µM (inactive); in test [9] it was 44.5 µM (inactive); in test [10] it was 43.5 µM (inactive); in [11], 39.8 µM (inactive); in [12], 41.2 µM (inactive). Further, the GI50 in [13] was 52.7 µM (inactive); in test [14], 43.9 µM (inactive); in test [15], 56.1 µM (inactive); in test [16], 45.7 µM (inactive); in [17] it was 58.5 µM (inactive); in test [18] it was 41.7 µM (inactive). Moreover, in test [19], the GI50 is 24.2 µM (inactive).
For `CCOC(=O)C1=[N+]([O-])OC2=C(O)CCCC21` (stereo not given), the GI50 in test [1], in test [2], in test [3], in test [4], in [5] and in [6] was > 100 µM (inactive) throughout. Also, the GI50 in test [7], in test [8], in [9], in [10], in test [11] and in test [12] was > 100 µM (inactive) in each case. Moreover, the GI50 in test [13], in test [14], in test [15], in [16], in test [17] and in test [18] was > 100 µM (inactive) in each case. In [19], the GI50 was > 100 µM (inactive).
On to `CC1c2cc(c3c(c2O)CN([C@@H](C)C2CCCCC2)CO3)C(C)c2cc(c3c(c2O)CN([C@@H](C)C2CCCCC2)CO3)C(C)c2cc(c3c(c2O)CN([C@@H](C)C2CCCCC2)CO3)C(C)c2cc1c1c(c2O)CN([C@@H](C)C2CCCCC2)CO1` (stereo not given in full), for which the GI50 in test [1] was 2.06 µM (inactive); in test [2], 1.71 µM (inactive); in test [3] it was 1.36 µM (inactive); in test [4] it was 2.11 µM (inactive); in test [5], 1.45 µM (inactive); in [6], 0.849 µM (active). Besides, the GI50 is 2.3 µM (inactive) in test [7]; 1.45 µM (inactive) in test [8]; 1.15 µM (inactive) in [9]; 1.36 µM (inactive) in test [10]; 1.77 µM (inactive) in test [11]; 1.8 µM (inactive) in test [12]. In addition, the GI50 is 1.76 µM (inactive) in test [13]; 0.414 µM (active) in test [14]; 1.31 µM (inactive) in test [15]; 1.32 µM (inactive) in test [16]; 1.33 µM (inactive) in [17]; 1.45 µM (inactive) in test [18]. The GI50 in [19] was 0.197 µM (active).
Turning to `C/C(=N\Nc1nc2ccccc2s1)c1cc2ccccc2cn1`, the GI50 in test [1] was 10.9 µM (inactive); in test [2], 1.65 µM (inactive); in test [3], 0.27 µM (active); in test [4], 6.79 µM (inactive); in test [5], 7.76 µM (inactive); in [6], 8.69 µM (inactive). Besides, the GI50 in test [7] was 4.01 µM (inactive); in test [8], 8.63 µM (inactive); in test [9], 2.84 µM (inactive); in test [10], 1.52 µM (inactive); in test [11] it was 5.42 µM (inactive); in test [12], 3.7 µM (inactive). Further, the GI50 in [13] is 6.3 µM (inactive); in [14] it was 3.21 µM (inactive); in [15], 4.88 µM (inactive); in test [16] it was 1.61 µM (inactive); in test [17], 7.43 µM (inactive); in test [18], 4.61 µM (inactive). In addition, the GI50 in test [19] was 2.41 µM (inactive).
Turning to `C/C(=N\Nc1ccccc1Br)c1cccc(/C(C)=N/Nc2ccccc2Br)n1`, the GI50 in test [1] was 45.9 µM (inactive); in test [2] it was 68.1 µM (inactive); in test [3], 54.1 µM (inactive); in test [4], 39 µM (inactive); in test [5], > 100 µM (inactive); in test [6] it was 31.7 µM (inactive). For the same compound, the GI50 in test [7] was > 100 µM (inactive); in test [8], 81.5 µM (inactive); in test [9], > 100 µM (inactive); in test [10], 68.2 µM (inactive); in test [11], 42.8 µM (inactive); in [12], 34.4 µM (inactive). The GI50 was > 100 µM (inactive) in test [13]; > 100 µM (inactive) in test [14]; 43.4 µM (inactive) in test [15]; 80.7 µM (inactive) in test [16]; 59 µM (inactive) in test [17]; 66.8 µM (inactive) in test [18]. The GI50 in test [19] is > 100 µM (inactive).
